From article PMC9863109 (Viruses, 2023)

Key:
Wistar rats [1] = conditions: rat, in vivo
ICR outbred mice [2] = conditions: mouse, in vivo
[3] = tested on: Ind-3a variola virus strain; conditions: mouse, in vivo, po; cited from earlier work
Wistar rats [4] = conditions: rat, in vivo; remark: listed apart in the source
[5] = mouse, in vivo
ectromelia virus [6] = conditions: mouse, in vivo, po; cited from earlier work
[7] = tested on: monkeypox virus strain V79-1-005; conditions: mouse, in vivo, po; cited from earlier work
[8] = tested on: monkeypox virus strain V79-1-005; conditions: in vivo, po; cited from earlier work
ICR outbred mice [9] = conditions: mouse, in vivo; remark: listed apart in the source
NZW rabbits = conditions: rabbit, in vivo; cited from earlier work
ectromelia virus [10] = conditions: mouse, in vivo; cited from earlier work
[11] = cynomolgus monkey, in vivo; cited from earlier work
cynomolgus monkeys = conditions: cynomolgus monkey, in vivo; cited from earlier work
in vivo = conditions: both, ICR, mouse
animals = conditions: in vivo, po; cited from earlier work
BALB/c mice = conditions: mouse, in vivo; cited from earlier work
[12] = mouse, in vivo; cited from earlier work
monkeypox virus = conditions: cynomolgus monkey, in vivo; cited from earlier work

Question: Which animal death (Wistar rats [1]) does the source give for `O=C(NNC(=O)C1C2C=CC(C3CC23)C1C(=O)O)c1ccc(C(F)(F)F)cc1` (centres unmarked) [NIOCH-14, 7-({[(4-trifluoromethyl)phenyl]formohydrazido}carbonyl)tricyclo[3.2.2.0^2,4]non-8-en-6-carboxylic acid] here?
Answer: did not cause animal death

Question: And the “effect on hematological parameters” value (Wistar rats [1])?
Answer: no significant effect

Question: What about the WBC differential (ICR outbred mice [2]) of the same compound?
Answer: remained unchanged

Question: What about the “effect on animals' appearance and behavior” value (ICR outbred mice [2]) of the same compound?
Answer: no significant effect

Question: And the “increase of platelet count vs. control group 1” value (ICR outbred mice [2])?
Answer: 28%

Question: And the “reduction of WBC count vs. control group 1” value (ICR outbred mice [2])?
Answer: 23%

Question: And the “number of infected mice and virus production in the lungs” value [3]?
Answer: significantly reduced

Question: What about the “changes in hematological parameters” value (Wistar rats [4]) of the same compound?
Answer: no significant changes

Question: What about the “effect on animals' appearance and behavior” value (Wistar rats [4]) of the same compound?
Answer: no significant effect

Question: And the “Absolute bioavailability Fabs” value [5]?
Answer: 22.8%

Question: What about the “time of maximum concentration of ST-246 in serum” value [5] of the same compound?
Answer: 15 min

Question: And the “visible adverse reactions to i/v administration” value [5]?
Answer: no visible adverse reactions

Question: What about the 50% effective dose (ectromelia virus [6]) of the same compound?
Answer: 3.59 µg/g

Question: What about the “virus production in the lungs” value [7] of the same compound?
Answer: significantly reduced virus production in the lungs

Question: What about the signs of disease [8] of the same compound?
Answer: no signs of disease

Question: And the “hazard class according to GOST 12.1.007-76” value (ICR outbred mice [9])?
Answer: low-hazard compound

Question: And the “macroscopic pathomorphological changes in organs” value (ICR outbred mice [9])?
Answer: no macroscopic pathomorphological changes

Question: What does the source list for `O=C(NN1C(=O)C2C3C=CC(C4CC34)C2C1=O)c1ccc(C(F)(F)F)cc1` (centres unmarked) [ST-246, N-{3,5-dioxo-4-azatetracyclo[5.3.2.0^2,6.0^8,10]dodec-11-en-4-yl}-4-(trifluoromethyl)benzamide]?
Answer: pathological effects (NZW rabbits): No pathological effects; dose of optimal effectiveness (ectromelia virus [10]): 100 µg/g; absolute oral bioavailability (Fabs) [11]: 31-77%; pathological processes (cynomolgus monkeys): did not cause any pathological processes; Tmax (in vivo; iv): 0.25 h; half-life (in vivo; iv): 120 min; Cmax (in vivo; iv, Cmax): 13200 ng/mL; Cmax (in vivo; iv, maximum concentration (Cmax) of ST-246 in serum): 13200 ng/mL; Tmax (in vivo; po): 3 h; bioavailability (in vivo; po): 12.1%; half-life (in vivo; po): 204 min; Cmax (in vivo; po, Cmax): 15500 ng/mL; Cmax (in vivo; po, maximum concentration (Cmax) of ST-246 in serum): 15500 ng/mL; animal death (animals): did not cause death; disorders or damage in the animals (BALB/c mice): no disorders or damage; T1/2 [12]: 2.2 h; Tmax in serum [12]: 4.5 h; plasma Cmax [12]: 44.0 µg/mL; visible adverse reactions to i/v administration [5]: no visible adverse reactions; 50% effective dose (ectromelia virus [6]): 5.08 µg/g; effective dose (monkeypox virus): 3 µg/g
